The test system of this experiment is Human umbilical vein endothelial cells (HUVEC), VEGF-stimulated. Kind of experiment: Test on the inhibition of VEGF-stimulated HUVEC growth ([3H]thymidine incorporation). The conditions noted are these: human recombinant VEGF 10 ng/ml. In kind it is cell-based. The protocol: Test method: (Cell culture) Human umbilical vein endothelial cells (HUVEC) were cultured using EGM-2 complete medium (Clonetics) which had been supplemented with additives (2% FBS, 0.4% FGF (fibroblast growth factor), 0.1% VEGF, 0.1% IGF-I (insulin like growth factor-I), 0.1% EGF (epidermal growth factor), 0.1% ascorbic acid, 0.1% GA-1000, 0.1% heparin and 0.04% hydrocortisone).
(Evaluation of compounds) HUVEC (10,000 cells/well) were inoculated into EGM-2 complete medium in a gelatin-coated 96 well plate (mfd. by IWAKI) and cultured overnight. After washing with a physiological phosphate buffer, the medium was exchanged with a low serum medium (Medium 199/0.1% FBS) and the culturing was continued for 24 hours. Each of the compounds to be evaluated was prepared as a 10 mM DMSO solution and diluted with the low serum medium. This was added to each well to a final concentration of from 0.001 to 10 μM. After 2 hours of the compound treatment, human recombinant VEGF (R & D Systems) was added to a final concentration of 10 ng/ml. After 18 hours, [^3H]thymidine (Amersham Pharmacia) was added in 5 μCi/well portions. After 4 hours, the reaction was terminated by adding 0.2% SDS in 50 μl/well portions, and the product was recovered on GF/C Unifilter (Packard). After adding 25 μl of Microscinti 20 (Packard), the radioactivity incorporated into the DNA trapped on the filter was measured using TopCount (Packard). The IC50 of the inhibitory activity of each compound was calculated as the 50% inhibition concentration (IC50 value) of each compound to be tested, by defining the incorporated amount of [^3H]thymidine at the time of VEGF addition as 100%, and its incorporated amount at the time of no addition of VEGF as 0%.
Background: Incorporation of labelled thymidine or its analogues reports DNA synthesis.

Among the data in patent US20050090498A1, “3-Quinolin-2(1h)-ylideneindolin-2-one derivative” (priority 2001, published 2005) are IC50 values, retold here.

By IC50 is commonly meant the point on the concentration scale where inhibition reaches its midpoint. As to `O=C1Nc2cc(C(F)(F)F)ccc2C1=C1C=Cc2ccccc2N1` [Example 203], the 50% inhibitory concentration (IC50) came to 4.8 nM. Regarding `CCOC(=O)c1ccc2c(c1)C(=C1C=Cc3ccccc3N1)C(=O)N2` [Example 239], the concentration for half-maximal inhibition (IC50) was found to be 310 nM. On to `CCOC(=O)c1ccc2c(c1)NC(=O)C2=C1C=Cc2ccccc2N1` [Example 17, ethyl 3-[quinolin-2(1H)-ylidene]indolin-2-one-carboxylate], for which the IC50 was 12 nM. Take `O=C1Nc2ccccc2C1=C1C=Cc2ccc(OCCN3CCOCC3)cc2N1` [Example 102]: the IC50 is 410 nM.

As for `O=C(CCc1ccc2c(c1)C=CC(=C1C(=O)Nc3ccccc31)N2)NOCC1CC1` [Example 144], the IC50 came out at 93 nM. As for `O=C1Nc2ccc(F)cc2C1=C1C=Cc2ccccc2N1` [Example 213], the IC50 stood at 0.97 nM. In the case of `CCOC(=O)c1ccc2c(c1)NC(=O)C2=C1C=Cc2cc(OCCN3CCOCC3)ccc2N1` [Example 294], the IC50 turned out to be 12 nM. On to `O=C1Nc2ccccc2C1=C1C=Cc2cc(OCCN3CCCCC3=O)ccc2N1` [Example 59], for which the half-inhibitory concentration (IC50) amounted to 87 nM. As to `CCOC(=O)c1cc2c(cc1C)C(=C1C=Cc3cc(OCCN4CCOCC4)ccc3N1)C(=O)N2` [Example 301], the IC50 amounted to 7.6 nM. To `O=C1Nc2ccccc2C1=C1C=Cc2cc(OCCN3CCC(n4c(=O)[nH]c5ccccc54)CC3)ccc2N1` [Example 81] belongs 68 nM.

Turning to `CN(C)CCN(C)CCOc1ccc2c(c1)C=CC(=C1C(=O)Nc3ccccc31)N2` [Example 86], the IC50 is 100 nM. On to `O=C1Nc2ccccc2C1=C1C=C(CO)c2ccccc2N1` [Example 187], for which the half-maximal inhibitory concentration (IC50) stood at 140 nM. Take `O=C1Nc2ccccc2C1=C1C=Cc2cc(OCCN3CCN(c4ncccn4)CC3)ccc2N1` [Example 82]: the IC50 is 42 nM.

As for `CCOC(=O)c1cc2c(cc1F)C(=C1C=Cc3ccccc3N1)C(=O)N2` [Example 204], the IC50 worked out at 22 nM.

In the case of `CNC(=O)c1ccc2c(c1)C=CC(=C1C(=O)Nc3ccccc31)N2` [Example 149], the IC50 came out at 73 nM. In the case of `CCOC(=O)c1cc2c(cc1C)C(=C1C=Cc3ccccc3N1)C(=O)N2` [Example 222], the concentration for half-maximal inhibition (IC50) worked out at 6.8 nM. With `CC(=O)Oc1ccc2c(c1)NC(=O)C2=C1C=Cc2ccccc2N1` [Example 265], the half-inhibitory concentration (IC50) is 180 nM. Regarding `N#Cc1ccc2c(c1)NC(=O)C2=C1C=Cc2ccccc2N1` [Example 191], the half-maximal inhibitory concentration (IC50) amounted to 70 nM. `O=C(NCCCN1CCOCC1)C1=CC(=C2C(=O)Nc3ccccc32)Nc2ccccc21` [Example 163]: the concentration for half-maximal inhibition (IC50) stood at 43 nM. Take `N#Cc1ccc2c(c1)NC(=O)C2=C1C=Cc2cc(OCCN3CCOCC3)ccc2N1` [Example 295]: the IC50 came out at 33 nM. To `O=C1Nc2ccccc2C1=C1C=Cc2cc(OCCCN3CCOCC3)ccc2N1` [Example 42] belongs 110 nM; to `CC1=CC(=C2C(=O)Nc3ccccc32)Nc2ccccc21` [Example 38], 38 nM. As for `CCOC(=O)c1cc2c(cc1F)C(=C1C=Cc3cc(OCCN4CCOCC4)ccc3N1)C(=O)N2` [Example 299], the concentration for half-maximal inhibition (IC50) worked out at 27 nM.

On to `O=C1Nc2ccccc2C1=C1C=Cc2cc(C(=O)NCCN3CCOCC3)ccc2N1` [Example 145], for which the 50% inhibitory concentration (IC50) came to 31 nM.

Turning to `O=C1Nc2ccccc2C1=C1C=Cc2cc(OCCN3CCS(=O)(=O)CC3)ccc2N1` [Example 80], the IC50 was determined as 100 nM. Turning to `CCOC(=O)c1cc2c(cc1Cl)C(=C1C=Cc3cc(OCCN4CCOCC4)ccc3N1)C(=O)N2` [Example 298], the half-maximal inhibitory concentration (IC50) was 50 nM. To `CN1CCN(CCCc2ccc3c(c2)C=CC(=C2C(=O)Nc4ccccc42)N3)CC1` [Example 98] belongs 150 nM; to `O=C1Nc2cc(C(F)(F)F)ccc2C1=C1C=Cc2cc(OCCN3CCOCC3)ccc2N1` [Example 296], 47 nM. Regarding `O=C1Nc2ccc([N+](=O)[O-])cc2C1=C1C=Cc2ccccc2N1` [Example 284], the half-inhibitory concentration (IC50) came out at 360 nM. On to `CCOCc1ccc2c(c1)NC(=O)C2=C1C=Cc2ccccc2N1` [Example 259], for which the IC50 came out at 71 nM. Take `CCOC(=O)CCC1=CC(=C2C(=O)Nc3ccccc32)Nc2ccccc21` [Example 39]: the half-inhibitory concentration (IC50) amounted to 32 nM. On to `O=C1Nc2ccc(Cl)cc2C1=C1C=Cc2ccccc2N1` [Example 283], for which the IC50 worked out at 84 nM.

Turning to `O=Cc1ccc2c(c1)NC(=O)C2=C1C=Cc2ccccc2N1` [Example 193], the half-maximal inhibitory concentration (IC50) was 870 nM. Consider `O=C1Nc2ccccc2C1=C1C=Cc2c(cccc2OCCN2CCOCC2)N1` [Example 105], for which the half-inhibitory concentration (IC50) amounted to 220 nM. To `O=C1Nc2ccccc2C1=C1C=Cc2cc(OCCN3CCN(CCO)CC3)ccc2N1` [Example 85] belongs 110 nM; to `CN1CCC(N(C)CCOc2ccc3c(c2)C=CC(=C2C(=O)Nc4ccccc42)N3)CC1` [Example 87], 100 nM; to `O=C1Nc2ccccc2C1=C1C=Cc2cc(Br)ccc2N1` [Example 56], 110 nM. As to `O=C1Nc2ccccc2C1=C1C=Cc2cc(OC(=O)c3ccccc3)ccc2N1` [Example 36], the half-inhibitory concentration (IC50) turned out to be 160 nM. With `CCN(CC)CCOc1ccc2c(c1)C(=C1C=Cc3ccccc3N1)C(=O)N2` [Example 286], the IC50 turned out to be 750 nM.

Take `Cc1ccc2c(c1)C(=C1C=Cc3ccccc3N1)C(=O)N2` [Example 201]: the IC50 worked out at 290 nM. Turning to `COc1ccc2c(c1)C=CC(=C1C(=O)Nc3ccccc31)N2` [Example 37], the half-inhibitory concentration (IC50) was determined as 310 nM. Next, `CCN(CC)CCNC(=O)C1=CC(=C2C(=O)Nc3ccccc32)Nc2ccccc21` [Example 160]: 46 nM. Consider `COCCOc1ccc2c(c1)C=CC(=C1C(=O)Nc3ccccc31)N2` [Example 58], for which the IC50 is 34 nM. As for `O=C1Nc2ccccc2C1=C1C=Cc2cc(OCCCCN3CCOCC3)ccc2N1` [Example 47], the half-inhibitory concentration (IC50) came out at 170 nM. Consider `O=C1Nc2cc(Cl)ccc2C1=C1C=Cc2cc(OCCN3CCOCC3)ccc2N1` [Example 312], for which the IC50 was 48 nM. For the compound `COc1cc2c(cc1CCCN1CCOCC1)NC(=C1C(=O)Nc3ccccc31)C=C2` [Example 77], the IC50 stood at 160 nM. Next, `CCOC(=O)C1CCN(CCOc2ccc3c(c2)C=CC(=C2C(=O)Nc4ccccc42)N3)CC1` [Example 79]: 100 nM; `O=C(O)CCc1ccc2c(c1)C=CC(=C1C(=O)Nc3ccccc31)N2` [Example 66]: 350 nM. For the compound `O=C1Nc2ccc(Cl)cc2C1=C1C=Cc2cc(OCCN3CCOCC3)ccc2N1` [Example 293], the concentration for half-maximal inhibition (IC50) was 48 nM. Next, `CN1CCCN(CCOc2ccc3c(c2)C=CC(=C2C(=O)Nc4ccccc42)N3)CC1` [Example 83]: 110 nM; `COCCNCc1ccc2c(c1)C=CC(=C1C(=O)Nc3ccccc31)N2` [Example 112]: 100 nM. To `CCOC(=O)CNC(=O)c1ccc2c(c1)C=CC(=C1C(=O)Nc3ccccc31)N2` [Example 146] belongs 76 nM. To `O=C1Nc2cc(Cl)ccc2C1=C1C=Cc2ccccc2N1` [Example 217] belongs 11 nM. For `O=C1Nc2cc(F)c(F)cc2C1=C1C=Cc2cc(OCCN3CCOCC3)ccc2N1` [Example 341], the 50% inhibitory concentration (IC50) amounted to 20 nM. On to `O=C1Nc2ccccc2C1=C1C=Cc2cc(OCCNC3CCC(O)CC3)ccc2N1` (stereo not drawn) [Example 57], for which the IC50 stood at 720 nM.

`O=C1Nc2cc(F)ccc2C1=C1C=Cc2ccccc2N1` [Example 209]: the IC50 is 18 nM. Next, `O=C(NCCN1CCOCC1)C1=CC(=C2C(=O)Nc3ccccc32)Nc2ccccc21` [Example 159]: 38 nM.
